Like-named read-outs stand apart in the source and are kept apart here.
Columns and labels:
D1 dopamine receptors = molecular target: T1, D1 dopamine receptors (Rattus norvegicus, UniProt P18901); assay: D1 dopamine receptor binding: inhibition of tritiated SCH 23390 binding, rat striatal samples; design: species or system rat (male Charles River CD rats); details: rat striatum, tritiated SCH 23390, pH 7.4, 37° C., 30 minutes
T1 construct: Striatal samples from the brains of male Charles River CD rats; from tissue; host or cells: striatum of male Charles River CD rats (washed membrane pellet)
T1 sequence (P18901 whole entry): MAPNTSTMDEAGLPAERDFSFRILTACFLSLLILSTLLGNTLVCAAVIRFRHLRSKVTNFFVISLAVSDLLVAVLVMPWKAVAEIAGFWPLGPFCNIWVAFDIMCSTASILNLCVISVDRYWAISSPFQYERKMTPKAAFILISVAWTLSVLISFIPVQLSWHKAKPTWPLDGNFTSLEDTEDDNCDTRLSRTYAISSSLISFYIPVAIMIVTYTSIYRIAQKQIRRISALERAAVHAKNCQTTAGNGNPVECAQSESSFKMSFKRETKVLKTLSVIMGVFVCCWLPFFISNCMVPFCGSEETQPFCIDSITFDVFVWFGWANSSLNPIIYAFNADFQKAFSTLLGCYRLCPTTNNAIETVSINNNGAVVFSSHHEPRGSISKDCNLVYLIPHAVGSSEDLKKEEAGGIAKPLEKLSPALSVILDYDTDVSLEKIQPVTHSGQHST
In short: (§1)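 Rat striatal membranes in Tris-HCl with NaCl, KCl, CaCl2, MgCl2. Filtration, scintillation counting; Ki from displacement IC50 via ligand KD, some D2 Ki estimated from single concentrations.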

D2 dopamine receptors = molecular target: T2, D2 dopamine receptors (Rattus norvegicus, UniProt P61169); assay: D2 dopamine receptor binding: inhibition of tritiated (S)-sulpiride binding, rat striatal samples; design: species or system rat (male Charles River CD rats); details: for Ki: rat striatum, tritiated (S)-sulpiride; for Ki for D2 / Ki for D1: ratio to two significant figures
T2 construct: Striatal samples from the brains of male Charles River CD rats; from tissue; host or cells: striatum of male Charles River CD rats (washed membrane pellet)
T2 sequence (P61169 whole entry): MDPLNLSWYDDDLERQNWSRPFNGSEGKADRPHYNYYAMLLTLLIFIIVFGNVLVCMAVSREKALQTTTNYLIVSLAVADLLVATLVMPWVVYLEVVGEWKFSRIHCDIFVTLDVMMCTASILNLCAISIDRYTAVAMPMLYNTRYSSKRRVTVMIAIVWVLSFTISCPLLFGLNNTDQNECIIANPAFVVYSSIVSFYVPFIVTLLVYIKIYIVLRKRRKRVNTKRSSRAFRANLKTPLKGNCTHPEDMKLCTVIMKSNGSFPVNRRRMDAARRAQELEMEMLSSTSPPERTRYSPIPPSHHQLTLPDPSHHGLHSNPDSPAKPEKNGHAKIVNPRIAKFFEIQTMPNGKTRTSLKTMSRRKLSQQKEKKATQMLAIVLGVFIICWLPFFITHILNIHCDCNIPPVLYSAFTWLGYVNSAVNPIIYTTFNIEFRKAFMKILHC
In short: as §1

[1] = pH 7.7, 4° C., 40 minutes, > = from highest concentration which displaced ≤50% of the ligand, read-out: Ki for D2 binding
[2] = estimated from single concentration data by Langmuir adsorption isotherm equation, read-out: Ki for D2 binding (marked E)

Ki (D1 dopamine receptors) [nM] | Ki (D2 dopamine receptors; [1]) [nM] | Ki for D2 / Ki for D1 (D2 dopamine receptors) | Ki (D2 dopamine receptors; [2]) [nM] | Compound
2 | 1600 | 800 |  | CN1CCc2cc(F)c(O)cc2C1C1(c2ccccc2Cl)CC1 (stereo not shown) [Example 63, 1-[1-(2-chlorophenyl)cyclopropyl]-6-fluoro-7-hydroxy-2-methyl-1,2,3,4-tetrahydroisoquinoline]
22 | 51000 | 2300 |  | C=CCN1CCc2cc(Cl)c(O)cc2C1C1(c2ccccc2)CCC1 (stereo not shown) [Example 65, 2-allyl-6-chloro-7-hydroxy-1-(1-phenylcyclobutyl)-1,2,3,4-tetrahydroisoquinoline]
120 | > 500 | > 4.2 |  | CCN1CCc2cc(O)c(O)cc2C1C1(c2ccc(Cl)cc2)CCC1 (stereo not shown) [Example 66, 1-[1-(4-chlorophenyl)cyclobutyl]-2-ethyl-6,7-dihydroxy-1,2,3,4-tetrahydroisoquinoline]
53 |  |  | 7000 | C=CCN1CCc2cc(O)c(O)cc2C1C1(c2ccc(Cl)cc2)CCC1 (stereo not shown) [Example 67, 2-allyl-1-[1-(4-chlorophenyl)cyclobutyl]-6,7-dihydroxy-1,2,3,4-tetrahydroisoquinoline]
2 | 1900 | 950 |  | COc1cc2c(cc1O)C(C1(c3ccccc3Br)CCC1)N(C)CC2 (stereo not shown) [Example 68, 1-[1-(2-bromophenyl)cyclobutyl]-7-hydroxy-6-methoxy-2-methyl-1,2,3,4-tetrahydroisoquinoline]
2.1 | 5800 | 2800 |  | COc1cc2c(cc1O)C(C1(c3ccccc3Cl)CCC1)N(C)CC2 (stereo not shown) [Example 69, 1-[1-(2-chlorophenyl)cyclobutyl]-7-hydroxy-6-methoxy-2-methyl-1,2,3,4-tetrahydroisoquinoline]
21 | 35000 | 1700 |  | COc1cc2c(cc1O)C(C1(c3ccccc3Cl)CC(C)(C)C1)N(C)CC2 (stereo not shown) [Example 70, 7-hydroxy-6-methoxy-2-methyl-1-[1-(2-chlorophenyl)-3,3-dimethylcyclobutyl]-1,2,3,4-tetrahydroisoquinoline]
1.5 | 1800 | 1200 |  | CSc1ccccc1C1(C2c3cc(O)c(O)cc3CCN2C)CCC1 (stereo not shown) [Example 71, 6,7-dihydroxy-2-methyl-1-[1-(2-methylthiophenyl)cyclobutyl]-1,2,3,4-tetrahydroisoquinoline]
47 | 9500 | 200 |  | COc1cc2c(cc1O)C(C1(c3ccc(OC(F)(F)F)cc3)CCC1)N(C)CC2 (stereo not shown) [Example 72, 7-hydroxy-6-methoxy-2-methyl-1-[1-(4-trifluoromethoxyphenyl)cyclobutyl]-1,2,3,4-tetrahydroisoquinoline]
0.9 | 5000 | 5500 |  | COc1cc2c(cc1O)C(C1(c3ccccc3OC)CC1)N(C)CC2 (stereo not shown) [Example 73, 7-hydroxy-6-methoxy-1-[1-(2-methoxyphenyl)cyclopropyl]-2-methyl-1,2,3,4-tetrahydroisoquinoline]
1.5 | 1100 | 730 |  | COc1cc2c(cc1O)C(C1(c3ccccc3Cl)CC1)N(C)CC2 (stereo not shown) [Example 74, 1-[1-(2-chlorophenyl)cyclopropyl]-7-hydroxy-6-methoxy-2-methyl-1,2,3,4-tetrahydroisoquinoline]
150 | > 5000 | > 33 |  | COCCN1CCc2cc(OC)c(O)cc2C1C1(c2ccccc2Cl)CC1 (stereo not shown) [Example 75, 1-[1-(2-chlorophenyl)cyclopropyl]-7-hydroxy-6-methoxy-2-(2-methoxyethyl)-1,2,3,4-tetrahydroisoquinoline]
60 | > 5000 | > 83 |  | COc1cc2c(cc1O)C(C1(c3ccccc3Cl)CC1)N(CCO)CC2 (stereo not shown) [Example 76, 1-[1-(2-chlorophenyl)cyclopropyl]-7-hydroxy-2-(2-hydroxyethyl)-6-methoxy-1,2,3,4-tetrahydroisoquinoline]
94 | 550 | 5.9 |  | CN1CCc2cc(O)c(O)cc2C1C1(c2ccc(-c3ccccc3)cc2)CCC1 (stereo not shown) [Example 78, 6,7-dihydroxy-2-methyl-1-[1-(4-biphenylyl)cyclobutyl]-1,2,3,4-tetrahydroisoquinoline]
1.2 | 940 | 780 |  | Cc1cc2c(cc1O)C(C1(c3ccccc3Cl)CC1)N(C)CC2 (stereo not shown) [Example 79, 1-[1-(2-chlorophenyl)cyclopropyl]-7-hydroxy-2,6-dimethyl-1,2,3,4-tetrahydroisoquinoline]
1.9 | 330 | 170 |  | CN1CCc2cc(F)c(O)cc2C1C1(c2ccc(Cl)cc2Cl)CC1 (stereo not shown) [Example 81, 1-[1-(2,4-dichlorophenyl)cyclopropyl]-6-fluoro-7-hydroxy-2-methyl-1,2,3,4-tetrahydroisoquinoline]
1.8 | 4900 | 2700 |  | COc1cc2c(cc1O)C(C1(c3cccc4c3OCC4)CC1)N(C)CC2 (stereo not shown) [Example 82, 1-[1-(2,3-dihydrobenzo[b]furan-7-yl)cyclopropyl]-7-hydroxy-6-methoxy-2-methyl-1,2,3,4-tetrahydroisoquinoline]
21 |  |  | 6600 | CN1CCc2cc(O)c(O)cc2C1C1(c2ccccc2C#N)CCC1 (stereo not shown) [Example 83, 1-[1-(2-cyanophenyl)cyclobutyl]-6,7-dihydroxy-2-methyl-1,2,3,4-tetrahydroisoquinoline]
12 | 5100 | 430 |  | COc1cc2c(cc1O)C(C1(c3ccccc3Cl)CCCC1)N(C)CC2 (stereo not shown) [Example 84, 1-[1-(2-chlorophenyl)cyclopentyl]-7-hydroxy-6-methoxy-2-methyl-1,2,3,4-tetrahydroisoquinoline]

Reference: US5519034A, “Tetraisoquinoline compounds which have useful pharmaceutical utility” (The Boots Company PLC, priority 1991, dated 1996)
